This is an account of results in ChEMBL document CHEMBL1128134, “Characterization of a continuous fluorogenic assay for calpain I. Kinetic evaluation of peptide aldehydes, halomethyl ketones and (acyloxy)methyl ketones as inhibitors of the enzyme” (Bioorg Med Chem Lett, 1995).

Peptide text beside a SMILES is read from it. * marks the point of attachment. Cbz = O=C(OCc1ccccc1)*; CH2Cl = ClC*

Experiment [1] addresses Cathepsin B (Homo sapiens) (UniProt P07858). Description: Apparent second order rate constant for inhibition of cathepsin B by fluorogenic assay.
For experiment [2], the target named is Procathepsin L (Homo sapiens) (UniProt P07711). Briefly: Inhibition of cathepsin L (fluorogenic assay), apparent second order rate constant.
Chain of Procathepsin L (Homo sapiens) (P07711 114-333 limits assumed): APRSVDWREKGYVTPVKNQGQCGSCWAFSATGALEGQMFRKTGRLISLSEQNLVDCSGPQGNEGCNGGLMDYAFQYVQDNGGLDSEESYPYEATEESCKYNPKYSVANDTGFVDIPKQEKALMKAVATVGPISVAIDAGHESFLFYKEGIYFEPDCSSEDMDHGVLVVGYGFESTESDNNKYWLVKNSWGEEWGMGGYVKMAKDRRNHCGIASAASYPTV
The next experiment deals with Calpain 1 (Homo sapiens) (UniProt P04632+P07384). Description: Apparent second order rate constant for inhibition of calpain-1 by fluorogenic assay. Format: protein-complex assay.

On to `CC(C)C(NC(=O)OCc1ccccc1)C(=O)NC(Cc1ccccc1)C(=O)COC(=O)c1c(Cl)ccc(S(=O)(=O)CCN2CCOCC2)c1Cl` (centres undefined), for which the k obs / 1 in experiment [1] is 5500 M⁻¹ s⁻¹; in experiment [2] it was 63000 M⁻¹ s⁻¹; on Calpain 1 (Homo sapiens) it was 20000 M⁻¹ s⁻¹. As for `CC(NC(=O)C(Cc1ccccc1)NC(=O)OCc1ccccc1)C(=O)CCl` (centres undefined), the k obs / 1 is 220000 M⁻¹ s⁻¹ in experiment [1] and under 500 M⁻¹ s⁻¹ at Calpain 1 (Homo sapiens). `CC(C)CC(NC(=O)OCc1ccccc1)C(=O)NC(C)C(=O)COC(=O)c1c(Cl)ccc(S(=O)(=O)N2CCOCC2)c1Cl` (centres undefined): the k obs / 1 at Calpain 1 (Homo sapiens) worked out at 14000 M⁻¹ s⁻¹. Turning to `CC(C)C(NC(=O)OCc1ccccc1)C(=O)NCC(=O)COC(=O)c1c(Cl)ccc(S(=O)(=O)NCC(=O)OCc2ccccc2)c1Cl` (centres undefined), the k obs / 1 in experiment [1] is 600000 M⁻¹ s⁻¹; in experiment [2] it was 120000 M⁻¹ s⁻¹; on Calpain 1 (Homo sapiens), 12000 M⁻¹ s⁻¹. `CC(NC(=O)C(Cc1ccccc1)NC(=O)OCc1ccccc1)C(=O)COC(=O)c1c(Cl)cccc1Cl` (centres undefined): the figures for the k obs / 1 (in experiment [1]; in experiment [2]; at Calpain 1 (Homo sapiens)) were 360000 M⁻¹ s⁻¹, 104000 M⁻¹ s⁻¹ and under 500 M⁻¹ s⁻¹, respectively.

With `CC(C)CC(NC(=O)OCc1ccccc1)C(=O)NC(Cc1ccccc1)C(=O)COC(=O)c1c(Cl)cccc1Cl` (centres undefined), the figures for the k obs / 1 (in experiment [1]; in experiment [2]; on Calpain 1 (Homo sapiens)) were 250 M⁻¹ s⁻¹, 2700 M⁻¹ s⁻¹ and 11000 M⁻¹ s⁻¹, respectively. With `CC(C)C(NC(=O)OCc1ccccc1)C(=O)NCC(=O)COC(=O)c1c(Cl)cccc1Cl` (centres undefined), on Calpain 1 (Homo sapiens), the k obs / 1 came to 800 M⁻¹ s⁻¹. As for `CC(=O)Nc1cccc(Cl)c1C(=O)OCC(=O)CNC(=O)C(CC(C)C)NC(=O)OCc1ccccc1` (centres undefined), the k obs / 1 on Calpain 1 (Homo sapiens) worked out at 600 M⁻¹ s⁻¹. With `CC(C)CC(NC(=O)[C@@H](C)NC(=O)OCc1ccccc1)C(=O)NCC(=O)COC(=O)c1c(Cl)ccc(OCCN2CCOCC2)c1Cl` (some centres undefined), at Calpain 1 (Homo sapiens), the k obs / 1 was under 500 M⁻¹ s⁻¹. `CC(C)CC(NC(=O)OCc1ccccc1)C(=O)NC(Cc1ccccc1)C(=O)COC(=O)c1c(Cl)ccc(S(=O)(=O)N2CCOCC2)c1Cl` (centres undefined): the k obs / 1 at Calpain 1 (Homo sapiens) stood at 17000 M⁻¹ s⁻¹. Regarding `O=C(CNC(=O)C(Cc1ccccc1)NC(=O)OCc1ccccc1)COC(=O)c1c(Cl)cccc1Cl` (centres undefined), the k obs / 1 at Calpain 1 (Homo sapiens) is under 500 M⁻¹ s⁻¹. Consider `CC(C)CC(NC(=O)OCc1ccccc1)C(=O)NCC(=O)COC(=O)c1c(Cl)cccc1Cl` (centres undefined), for which the k obs / 1 at Calpain 1 (Homo sapiens) was 6000 M⁻¹ s⁻¹. For the molecule `CC(C)CC(NC(=O)OCc1ccccc1)C(=O)NC(C)C(=O)COC(=O)c1c(Cl)ccc(OCCN2CCOCC2)c1Cl` (centres undefined), the values for the k obs / 1 (in experiment [1]; at Calpain 1 (Homo sapiens)) were 58000 M⁻¹ s⁻¹ and 6000 M⁻¹ s⁻¹, respectively. On to `NC(=O)CC(NC(=O)OCc1ccccc1)C(=O)NC(Cc1ccccc1)C(=O)CCl` (stereo not drawn) (Cbz-Asn-Phe-CH2Cl; configuration not given here), for which the k obs / 1 in experiment [1] was found to be 3000 M⁻¹ s⁻¹; on Calpain 1 (Homo sapiens), 600 M⁻¹ s⁻¹. As to `Cc1ccc(S(=O)(=O)NC(CC(C)C)C(=O)NC(Cc2ccccc2)C(=O)COC(=O)c2c(F)cccc2F)cc1` (centres undefined), the k obs / 1 at Calpain 1 (Homo sapiens) worked out at 1500 M⁻¹ s⁻¹. For the molecule `O=C(CNC(=O)OCc1ccccc1)NC(Cc1ccccc1)C(=O)COC(=O)c1c(Cl)ccc(S(=O)(=O)NCC(=O)OCc2ccccc2)c1Cl` (centres undefined), the k obs / 1 at Calpain 1 (Homo sapiens) is 900 M⁻¹ s⁻¹.

Consider `CC(C)CC(NC(=O)OCc1ccccc1)C(=O)NC(C)C(=O)CCl` (centres undefined), for which the k obs / 1 in experiment [1] was found to be 43000 M⁻¹ s⁻¹; at Calpain 1 (Homo sapiens), 6000 M⁻¹ s⁻¹. As for `CC(C)CC(NC(=O)OCc1ccccc1)C(=O)NC(Cc1ccc(O)cc1)C(=O)COC(=O)c1c(Cl)cccc1Cl` (centres undefined), the results for the k obs / 1 (in experiment [1]; in experiment [2]; at Calpain 1 (Homo sapiens)) were 1600 M⁻¹ s⁻¹, 33000 M⁻¹ s⁻¹ and 28000 M⁻¹ s⁻¹, respectively. In the case of `CC(C)C[C@H](NC(=O)[C@H](C)NC(=O)OCc1ccccc1)C(=O)N[C@@H](Cc1ccccc1)C(=O)COC(=O)c1c(F)cccc1F`, the figures for the k obs / 1 (in experiment [1]; in experiment [2]; at Calpain 1 (Homo sapiens)) were 2200 M⁻¹ s⁻¹, 1600 M⁻¹ s⁻¹ and 19000 M⁻¹ s⁻¹, respectively.

For `CC(C)C[C@H](NC(=O)[C@@H]1CCCN1C(=O)OCc1ccccc1)C(=O)N[C@@H](Cc1ccccc1)C(=O)COC(=O)c1c(F)cccc1F`, the k obs / 1 came to 11000 M⁻¹ s⁻¹ in experiment [1] and 26500 M⁻¹ s⁻¹ at Calpain 1 (Homo sapiens).

Turning to `CC(C)CC(NC(=O)OC(C)(C)C)C(=O)NC(Cc1ccccc1)C(=O)COC(=O)c1c(F)cccc1F` (centres undefined), on Calpain 1 (Homo sapiens), the k obs / 1 was 8000 M⁻¹ s⁻¹. Regarding `CC(C)C[C@H](NC(=O)OCc1ccccc1)C(=O)N[C@@H](CC(C)C)C(=O)N[C@@H](Cc1ccccc1)C(=O)CCl` (Cbz-Leu-Leu-Phe-CH2Cl), the k obs / 1 in experiment [1] amounted to 30000 M⁻¹ s⁻¹; at Calpain 1 (Homo sapiens), 9500 M⁻¹ s⁻¹. For the molecule `CC(C)C[C@H](NC(=O)OCc1ccccc1)C(=O)N[C@@H](Cc1ccc(O)cc1)C(=O)CBr`, the k obs / 1 in experiment [1] was 50 M⁻¹ s⁻¹; at Calpain 1 (Homo sapiens) it was under 500 M⁻¹ s⁻¹. With `CC(C)CC(NC(=O)OCc1ccccc1)C(=O)NC(Cc1ccc(O)cc1)C(=O)COC(=O)c1c(F)cccc1F` (centres undefined), at Calpain 1 (Homo sapiens), the k obs / 1 was determined as 7000 M⁻¹ s⁻¹. Turning to `CC(C)C[C@H](NC(=O)CNC(=O)OCc1ccccc1)C(=O)N[C@@H](Cc1ccccc1)C(=O)CCl` (Cbz-Gly-Leu-Phe-CH2Cl), the k obs / 1 amounted to 2700 M⁻¹ s⁻¹ in experiment [1] and 3300 M⁻¹ s⁻¹ at Calpain 1 (Homo sapiens). In the case of `Cc1cccc(C)c1C(=O)OCC(=O)C(Cc1ccccc1)NC(=O)C(NC(=O)OCc1ccccc1)C(C)C` (centres undefined), the k obs / 1 at Calpain 1 (Homo sapiens) was 700 M⁻¹ s⁻¹. For the molecule `CC(C)CC(NC(=O)OCc1ccccc1)C(=O)NC(Cc1ccccc1)C(=O)COC(=O)c1c(Cl)ccc(S(=O)(=O)CCN2CCOCC2)c1Cl` (centres undefined), the figures for the k obs / 1 (in experiment [1]; in experiment [2]; on Calpain 1 (Homo sapiens)) were 80 M⁻¹ s⁻¹, 38000 M⁻¹ s⁻¹ and 30000 M⁻¹ s⁻¹, respectively.
